Source: US7906655B2, “Hepatitis C virus inhibitors” (Bristol-Myers Squibb Company, priority 2008, dated 2011)

Tested on: HCV 1b genotype
Assay: HCV Replicon assay (HCV-neo replicon cells, wild-type)
Format: cell-based
Details: HCV 1b genotype replicon
Procedure, shortened: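 Assay used wild-type HCV genotype 1b replicon cells carrying neo, with luciferase reporter read-outs in some formats.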

[1] = Hepatitis C virus, class symbols
[2] = Hepatitis C virus, numeric values

| Structure (SMILES) | EC50 [1] | further results |
| --- | --- | --- |
| CCc1ccccc1C(=O)N1CCC[C@H]1c1nc2cc(C#Cc3ccc4nc([C@@H]5CCCN5C(C)=O)[nH]c4c3)ccc2[nH]1 [Example M54.19, 5-((2-((2S)-1-acetyl-2-pyrrolidinyl)-1H-benzimidazol-6-yl)ethynyl)-2-((2S)-1-(2-ethylbenzoyl)-2-pyrrolidinyl)-1H-benzimidazole] | 100 to 999 nM |  |
| C[C@H](NC(=O)[C@@](C)(O)c1ccccc1)c1nc2cc(C#Cc3ccc4[nH]c([C@H](C)NC(=O)[C@@](C)(O)c5ccccc5)nc4c3)ccc2[nH]1 [Example M28] |  | EC50 (class symbols): < 4.57 nM |
| O=C(OCc1ccccc1)N1C[C@H](O)C[C@H]1c1nc2cc(C#Cc3ccc4[nH]c([C@@H]5C[C@@H](O)CN5C(=O)OCc5ccccc5)nc4c3)ccc2[nH]1 [Example F11] | < 4.57 nM |  |
| O=C(c1ccccc1NCc1ccccc1)N1CCC[C@H]1c1nc2cc(C#Cc3ccc4[nH]c([C@@H]5CCCN5C(=O)[C@H]5CCCO5)nc4c3)ccc2[nH]1 [Example M54.13, N-benzyl-2-(((2S)-2-(5-((2-((2S)-1-((2R)-tetrahydro-2-furanylcarbonyl)-2-pyrrolidinyl)-1H-benzimidazol-5-yl)ethynyl)-1H-benzimidazol-2-yl)-1-pyrrolidinyl)carbonyl)aniline] | 100 to 999 nM |  |
| O=CN[C@@H](C(=O)N1CCC[C@H]1c1nc2cc(C#Cc3ccc4[nH]c([C@@H]5CCCN5C(=O)[C@H](NC=O)c5ccccc5)nc4c3)ccc2[nH]1)c1ccccc1 [Example M20, N,N′-(1,2-ethynediylbis(1H-benzimidazole-5,2-diyl(2S)-2,1-pyrrolidinediyl((1R)-2-oxo-1-phenyl-2,1-ethanediyl)))diformamide] | < 4.57 nM |  |
| CC(=O)N[C@H](C(=O)N1CCC[C@H]1c1nc2cc(-c3cnc(-c4cccc5[nH]c([C@@H]6CCCN6C(=O)[C@@H](c6ccccc6)N(C)C)nc45)o3)ccc2[nH]1)c1ccccc1 [Example J11.2, N-((1S)-2-((2S)-2-(5-(2-(2-((2S)-1-((2R)-2-(dimethyl-amino)-2-phenylacetyl)-2-pyrrolidinyl)-1H-benzimidazol-4-yl)-1,3-oxazol-5-yl)-1H-benzimidazol-2-yl)-1-pyrrolidinyl)-2-oxo-1-phenylethyl) acetamide] | < 4.57 nM |  |
| COC(=O)N[C@H](C(=O)N1CCC[C@H]1c1nc2cc(Oc3ccc(-c4ccc5[nH]c([C@@H]6CCCN6C(=O)[C@@H](NC(=O)OC)C(C)C)nc5c4)cc3)ccc2[nH]1)C(C)C [Example V12, Methyl((1S)-1-(((2S)-2-(5-(4-(2-((2S)-1-((2S)-2-((methoxycarbonyl)amino)-3-methylbutanoyl)-2-pyrrolidinyl)-1H-benzimidazol-5-yl)phenoxy)-1H-benzimidazol-2-yl)-1-pyrrolidinyl)carbonyl)-2-methylpropyl)carbamate] | < 4.57 nM |  |
| CN1CCN([C@@H](C(=O)N2CCC[C@H]2c2nc3cc(-c4cnc(-c5cccc6[nH]c([C@@H]7CCCN7C(=O)[C@@H](c7ccccc7)N7CCN(C)CC7)nc56)o4)ccc3[nH]2)c2ccccc2)CC1 [Example J14, 2-((2S)-1-((2R)-2-(4-methyl-1-piperazinyl)-2-phenylacetyl)-2-pyrrolidinyl)-4-(5-(2-((2S)-1-((2R)-2-(4-methyl-1-piperazinyl)-2-phenylacetyl)-2-pyrrolidinyl)-1H-benzimidazol-5-yl)-1,3-oxazol-2-yl)-1H-benzimidazole] | < 4.57 nM |  |
| O=C([C@H]1CCCO1)N1CCC[C@H]1c1nc2cc(C#Cc3ccc4[nH]c([C@@H]5CCCN5C(=O)[C@H]5CCCO5)nc4c3)ccc2[nH]1 [Example M5, 5,5′-(1,2-ethynediyl)bis(2-((2S)-1-((2R)-tetrahydro-2-furanylcarbonyl)-2-pyrrolidinyl)-1H-benzimidazole)] |  | EC50 [2]: 10 nM |
| C[C@@H](c1nc2cc(C#Cc3ccc4[nH]c([C@H](C)N(C)C(=O)[C@H](O)c5ccccc5)nc4c3)ccc2[nH]1)N(C)C(=O)[C@H](O)c1ccccc1 [Example M33] |  | EC50 (class symbols): < 4.57 nM |
| O=C(Cc1ccccc1)N1CCC[C@H]1c1nc2cc(-c3cnc(-c4cccc5[nH]c([C@@H]6CCCN6C(=O)Cc6ccccc6)nc45)o3)ccc2[nH]1 [Example J7, 2-((2S)-1-(phenylacetyl)-2-pyrrolidinyl)-4-(5-(2-((2S)-1-(phenylacetyl)-2-pyrrolidinyl)-1H-benzimidazol-5-yl)-1,3-oxazol-2-yl)-1H-benzimidazole] | 4.57 to 99 nM |  |
| CN(C)[C@@H](C(=O)N1CCC[C@H]1c1nc2cc(-c3cnc(-c4cccc5[nH]c([C@@H]6CCCN6C(=O)[C@@H](c6ccccc6)N(C)C)nc45)o3)ccc2[nH]1)c1ccccc1 [Example J11, (1R)-2-((2S)-2-(4-(5-(2-((2S)-1-((2R)-2-(dimethyl-amino)-2-phenylacetyl)-2-pyrrolidinyl)-1H-benzimidazol-5-yl)-1,3-oxazol-2-yl)-1H-benzimidazol-2-yl)-1-pyrrolidinyl)-N,N-dimethyl-2-oxo-1-phenyl-ethanamine] | < 4.57 nM |  |
| CN(C)C(=O)C[C@H](NC(=O)OCc1ccccc1)c1nc2cc(CCc3ccc4[nH]c([C@H](CC(=O)N(C)C)NC(=O)OCc5ccccc5)nc4c3)ccc2[nH]1 [OL14, benzyl((1S)-1-(5-(2-(2-((1S)-1-(((benzyloxy)carbonyl)amino)-3-(dimethylamino)-3-oxopropyl)-1H-benzimidazol-6-yl)ethyl)-1H-benzimidazol-2-yl)-3-(dimethylamino)-3-oxopropyl)carbamate] | 100 to 999 nM |  |
| Cn1cccc1C(=O)N1CCC[C@H]1c1nc2cc(C#Cc3ccc4[nH]c([C@@H]5CCCN5C(=O)c5cccn5C)nc4c3)ccc2[nH]1 [Example M12, 5,5′-(1,2-ethynediyl)bis(2-((2S)-1-((1-methyl-1H-pyrrol-2-yl)carbonyl)-2-pyrrolidinyl)-1H-benzimidazole)] | 4.57 to 99 nM |  |
| COC(=O)N[C@H](C(=O)N1CCCC[C@H]1c1nc2ccc(-c3ccc(-c4ccc5nc([C@@H]6CCCCN6C(=O)[C@@H](NC(=O)OC)C(C)C)[nH]c5c4)cc3)cc2[nH]1)C(C)C [Example M46.3, Methyl((1S)-1-(((2S)-2-(5-(4-(2-((2S)-1-((2S)-2-((methoxycarbonyl)amino)-3-methylbutanoyl)-2-piperidinyl)-1H-benzimidazol-5-yl)phenyl)-1H-benzimidazol-2-yl)-1-piperidinyl)carbonyl)-2-methylpropyl)carbamate] | < 4.57 nM |  |
| CC(C)CN[C@H]1C[C@@H](c2nc3cc(C#Cc4ccc5[nH]c([C@@H]6C[C@H](NCC(C)C)CN6C(=O)[C@H]6CCCO6)nc5c4)ccc3[nH]2)N(C(=O)[C@H]2CCCO2)C1 [Example M47.2, (3S,5S,3′S,5′S)-5,5′-(1,2-ethynediylbis(1H-benzimidazole-5,2-diyl))bis(N-isobutyl-1-((2R)-tetrahydro-2-furanylcarbonyl)-3-pyrrolidinamine)] |  | EC50 [2]: 610 nM |
| COC(=O)N[C@@H](C(=O)N1CCC[C@H]1c1nc2c(-c3ncc(-c4ccc5[nH]c([C@@H]6CCCN6C(=O)[C@@H](c6ccccc6)N6CCN(C)CC6)nc5c4)o3)cccc2[nH]1)c1ccccc1 [Example J30, methyl ((1R)-2-((2S)-2-(4-(5-(2-((2S)-1-((2R)-2-(4-methyl-1-piperazinyl)-2-phenylacetyl)-2-pyrrolidinyl)-1H-benzimidazol-5-yl)-1,3-oxazol-2-yl)-1H-benzimidazol-2-yl)-1-pyrrolidinyl)-2-oxo-1-phenylethyl) carbamate] |  | EC50 [2]: 0.058 nM |
| O=C(Cc1ccccc1)N1CCC[C@H]1c1nc2cc(C#Cc3ccc4[nH]c([C@@H]5CCCN5C(=O)Cc5ccccc5)nc4c3)ccc2[nH]1 [Example M37, 5,5′-(1,2-ethynediyl)bis(2-((2S)-1-(phenylacetyl)-2-pyrrolidinyl)-1H-benzimidazole)] | < 4.57 nM |  |
| O=C(Cc1ccccn1)N1CCC[C@H]1c1nc2cc(CCc3ccc4[nH]c([C@@H]5CCCN5C(=O)Cc5ccccn5)nc4c3)ccc2[nH]1 [Example M43, 5,5′-(1,2-ethanediyl)bis(2-((2S)-1-(2-pyridinylacetyl)-2-pyrrolidinyl)-1H-benzimidazole)] |  | EC50 (class symbols): 4.57 to 99 nM |
| COC(=O)NC(C(=O)N1[C@@H]2C[C@@H]2C[C@H]1c1nc2cc(Oc3cccc(-c4ccc5[nH]c([C@@H]6C[C@H]7C[C@H]7N6C(=O)C(NC(=O)OC)c6ccccc6)nc5c4)c3)ccc2[nH]1)c1ccccc1 (stereo partly drawn) [Example V4, methyl (2-((1R,3S,5R)-3-(5-(3-((2-((1R,3S,5R)-2-(((methoxycarbonyl)amino)(phenyl)acetyl)-2-azabicyclo[3.1.0]hex-3-yl)-1H-benzimidazol-5-yl)oxy)phenyl)-1H-benzimidazol-2-yl)-2-azabicyclo[3.1.0]hex-2-yl)-2-oxo-1-phenylethyl) carbamate] |  | EC50 (class symbols): < 4.57 nM |
| COC(=O)N[C@H](C(=O)N1CCC[C@H]1c1nc2cc(-c3cnc(-c4ccc5[nH]c([C@@H]6CCCN6C(=O)[C@@H](NC(=O)OC)C(C)C)nc5c4)o3)ccc2[nH]1)C(C)C [Example J19, methyl ((1S)-1-(((2S)-2-(5-(2-(2-((2S)-1-((2S)-2-((methoxy-carbonyl)amino)-3-methyl-butanoyl)-2-pyrrolidinyl)-1H-benzimidazol-5-yl)-1,3-oxazol-5-yl)-1H-benzimidazol-2-yl)-1-pyrrolidinyl)carbonyl)-2-methylpropyl) carbamate] |  | EC50 (class symbols): < 4.57 nM |
| CN(C)[C@@H](C(=O)N1CCC[C@H]1c1nc2cc(-c3cnc(-c4cccc5[nH]c([C@@H]6C[C@@H]7C[C@@H]7N6C(=O)[C@@H](c6ccccc6)N(C)C)nc45)o3)ccc2[nH]1)c1ccccc1 (single isomer, unassigned) [Example J25] | < 4.57 nM |  |
| CCC(=O)N1CCC[C@H]1c1nc2cc(C#Cc3ccc4nc([C@@H]5CCCN5C(C)=O)[nH]c4c3)ccc2[nH]1 [Example M54.29, 5-((2-((2S)-1-acetyl-2-pyrrolidinyl)-1H-benzimidazol-6-yl)ethynyl)-2-((2S)-1-propionyl-2-pyrrolidinyl)-1H-benzimidazole] | 100 to 999 nM |  |
| COC(=O)N[C@@H](C(=O)N1C2C[C@@H]2C[C@H]1c1nc2cc(-c3ccc(-c4ccc5[nH]c([C@@H]6C[C@H]7CC7N6C(=O)[C@H](NC(=O)OC)c6ccccc6)nc5c4)cc3)ccc2[nH]1)c1ccccc1 (single isomer, unassigned) [Example M46.1] | < 4.57 nM |  |
